Earlier results on one compound are cited in patent US20100119592A1, “CYTARABINE FOR TREATMENT OF GLIOMA” (priority 2006, published 2010).

The structures appear in SMILES notation.

This data set has as its system proliferating mammalian cells in culture. As to conditions: wide variety of proliferating mammalian cells in culture.

As for `Nc1ccn([C@@H]2O[C@H](CO)[C@@H](O)[C@@H]2O)c(=O)n1` [Cytarabine, 4-amino-1-beta-D-arabinofuranosyl-2(1H)-pyrimidinone], the cytotoxicity result is “cytotoxic”.
